In ChEMBL document CHEMBL1139276, “Diarylimidazolyl oxadiazole and thiadiazole derivatives as cannabinoid CB1 receptor antagonists” (Bioorg Med Chem Lett, 2009):

Molecular target: Cannabinoid receptor 1 (Rattus norvegicus, UniProt P20272)
Assay: Displacement of [3H]CP-55940 from CB1 receptor in Sprague-Dawley rat cerebellar membrane
Set-up: species or system Cerebellum

Sequence of Cannabinoid receptor 1 (P20272 whole entry): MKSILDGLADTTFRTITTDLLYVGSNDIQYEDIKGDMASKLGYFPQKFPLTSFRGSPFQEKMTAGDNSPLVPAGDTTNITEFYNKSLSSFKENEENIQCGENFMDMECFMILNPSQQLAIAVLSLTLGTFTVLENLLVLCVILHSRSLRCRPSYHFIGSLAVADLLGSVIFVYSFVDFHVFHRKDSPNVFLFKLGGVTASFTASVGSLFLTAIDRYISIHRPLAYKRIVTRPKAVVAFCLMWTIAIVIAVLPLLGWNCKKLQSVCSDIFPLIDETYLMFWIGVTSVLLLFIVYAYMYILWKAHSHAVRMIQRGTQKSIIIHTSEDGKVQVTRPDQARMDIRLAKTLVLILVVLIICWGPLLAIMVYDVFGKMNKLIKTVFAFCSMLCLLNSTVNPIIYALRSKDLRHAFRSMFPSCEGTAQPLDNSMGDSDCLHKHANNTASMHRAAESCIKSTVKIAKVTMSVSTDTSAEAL

| IC50 [nM] | SMILES |
| --- | --- |
| 55.1 | Cc1c(-c2nnc(C3(C(F)(F)F)CC3)o2)nc(-c2ccc(Cl)cc2Cl)n1-c1ccc(Cl)cc1 |
| 5.29 | Cc1c(-c2nnc(C(C)(C)C)o2)nc(-c2ccccc2Cl)n1-c1ccc(Cl)cc1 |
| 9.66 | Cc1c(-c2nnc(C3(C(F)(F)F)CCC3)s2)nc(-c2ccc(Cl)cc2Cl)n1-c1ccc(Cl)cc1 |
| 39.4 | Cc1c(-c2nnc(CC(C)C)o2)nc(-c2ccc(Cl)cc2Cl)n1-c1ccc(Cl)cc1 |
| 16.7 | Cc1c(-c2nnc(C3(C(F)(F)F)CCC3)o2)nc(-c2ccc(Cl)cc2Cl)n1-c1ccc(Cl)cc1 |
| 33.5 | Cc1c(-c2nnc(C3(C(F)(F)F)CC3)s2)nc(-c2ccc(Cl)cc2Cl)n1-c1ccc(Cl)cc1 |
| 28.1 | Cc1c(-c2nnc(CC(C)C)s2)nc(-c2ccc(Cl)cc2Cl)n1-c1ccc(Cl)cc1 |
| 15.2 | Cc1c(-c2nnc(C3(c4ccc(Cl)cc4)CC3)o2)nc(-c2ccc(Cl)cc2Cl)n1-c1ccc(Cl)cc1 |

| SMILES | IC50 [nM] |
| --- | --- |
| Cc1c(-c2nnc(C(C)(C)C)s2)nc(-c2ccccc2Cl)n1-c1ccc(Cl)cc1 | 12.7 |
| Cc1c(-c2nnc(C3(c4ccc(Cl)cc4)CC3)s2)nc(-c2ccc(Cl)cc2Cl)n1-c1ccc(Cl)cc1 | 9.41 |
| CCc1c(-c2nnc(C(C)(C)C)o2)nc(-c2ccccc2Cl)n1-c1ccc(Cl)cc1 | 21.3 |

Molecular target: Cannabinoid receptor 2 (Homo sapiens, UniProt P34972)
Sequence (P34972 whole entry): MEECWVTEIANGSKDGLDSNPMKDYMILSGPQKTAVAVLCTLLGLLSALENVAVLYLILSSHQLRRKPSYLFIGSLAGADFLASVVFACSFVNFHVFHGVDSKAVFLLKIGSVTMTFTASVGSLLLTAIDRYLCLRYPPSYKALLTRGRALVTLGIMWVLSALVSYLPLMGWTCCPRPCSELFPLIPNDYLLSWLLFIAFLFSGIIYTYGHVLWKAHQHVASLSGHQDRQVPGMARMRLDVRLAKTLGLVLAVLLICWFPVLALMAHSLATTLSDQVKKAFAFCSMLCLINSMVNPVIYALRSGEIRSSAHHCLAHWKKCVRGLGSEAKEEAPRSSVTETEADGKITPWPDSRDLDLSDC
Assay: Displacement of [3H]WIN-55212-2 from human CB2 receptor expressed in CHO cells
Format: cell-based

| SMILES | IC50 [nM] |
| --- | --- |
| CCc1c(-c2nnc(C3(c4ccc(Cl)cc4Cl)CC3)o2)nc(-c2ccc(Cl)cc2Cl)n1-c1ccc(Br)cc1 | > 10000 |
| CCc1c(-c2nnc(C3(c4ccc(C)cc4)CC3)o2)nc(-c2ccc(Cl)cc2Cl)n1-c1ccc(Br)cc1 | > 10000 |

Continued, values first:

| IC50 [nM] | SMILES |
| --- | --- |
| > 10000 | CCc1c(-c2nnc(C3(c4ccc(Cl)cc4)CCC3)s2)nc(-c2ccc(Cl)cc2Cl)n1-c1ccc(Br)cc1 |
| > 10000 | CCc1c(-c2nnc(C3(c4ccccc4)CC3)s2)nc(-c2ccc(Cl)cc2Cl)n1-c1ccc(Br)cc1 |
| > 10000 | CCc1c(-c2nnc(C3(c4ccc(Cl)cc4Cl)CC3)s2)nc(-c2ccc(Cl)cc2Cl)n1-c1ccc(Br)cc1 |
| > 10000 | CCc1c(-c2nnc(C3(c4ccc(Cl)cc4)CCC3)o2)nc(-c2ccc(Cl)cc2Cl)n1-c1ccc(Br)cc1 |
| > 10000 | CCc1c(-c2nnc(C3(c4ccc(Cl)cc4)CC3)s2)nc(-c2ccc(Cl)cc2Cl)n1-c1ccc(Br)cc1 |
| > 10000 | CCc1c(-c2nnc(C3(c4ccc(C)cc4)CC3)s2)nc(-c2ccc(Cl)cc2Cl)n1-c1ccc(Br)cc1 |
| > 10000 | CCc1c(-c2nnc(C3(c4ccc(OC)cc4)CC3)s2)nc(-c2ccc(Cl)cc2Cl)n1-c1ccc(Br)cc1 |
